# According to ChEMBL document CHEMBL5291721, “A preclinical secondary pharmacology resource illuminates target-adverse drug reaction associations of marketed drugs” (Nat Commun, 2023):
# Columns and labels:
# [1] = target: Sodium-dependent serotonin transporter (Homo sapiens, UniProt P31645)
# [2] = target: Prostaglandin G/H synthase 1 (Homo sapiens, UniProt P23219); assay type: functional
# [3] = target: Sodium-dependent noradrenaline transporter (Homo sapiens, UniProt P23975)
# [4] = target: T1, Amine oxidase [flavin-containing] A (Homo sapiens, UniProt P21397); assay type: functional
# T1 sequence (P21397 whole entry): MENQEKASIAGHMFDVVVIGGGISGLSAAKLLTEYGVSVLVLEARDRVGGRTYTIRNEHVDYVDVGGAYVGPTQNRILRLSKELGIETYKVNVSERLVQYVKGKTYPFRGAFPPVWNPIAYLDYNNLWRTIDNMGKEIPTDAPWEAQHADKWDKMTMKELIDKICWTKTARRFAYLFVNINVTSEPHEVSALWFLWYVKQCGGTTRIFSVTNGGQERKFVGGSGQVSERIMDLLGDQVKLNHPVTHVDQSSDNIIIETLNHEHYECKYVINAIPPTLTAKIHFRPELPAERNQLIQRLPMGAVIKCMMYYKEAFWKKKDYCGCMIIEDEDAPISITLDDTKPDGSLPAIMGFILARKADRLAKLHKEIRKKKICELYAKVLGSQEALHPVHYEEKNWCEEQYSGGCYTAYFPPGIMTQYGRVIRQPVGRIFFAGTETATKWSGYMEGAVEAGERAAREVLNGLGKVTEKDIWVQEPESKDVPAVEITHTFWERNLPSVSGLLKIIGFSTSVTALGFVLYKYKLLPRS
# [5] = target: Gamma-aminobutyric acid receptor subunit alpha-1/alpha-2/beta-2/gamma-2 (Homo sapiens, UniProt P14867+P18507+P47869+P47870); assay type: protein-complex assay
# [6] = target: T2, Androgen receptor (Homo sapiens, UniProt P10275)
# T2 sequence (P10275 whole entry): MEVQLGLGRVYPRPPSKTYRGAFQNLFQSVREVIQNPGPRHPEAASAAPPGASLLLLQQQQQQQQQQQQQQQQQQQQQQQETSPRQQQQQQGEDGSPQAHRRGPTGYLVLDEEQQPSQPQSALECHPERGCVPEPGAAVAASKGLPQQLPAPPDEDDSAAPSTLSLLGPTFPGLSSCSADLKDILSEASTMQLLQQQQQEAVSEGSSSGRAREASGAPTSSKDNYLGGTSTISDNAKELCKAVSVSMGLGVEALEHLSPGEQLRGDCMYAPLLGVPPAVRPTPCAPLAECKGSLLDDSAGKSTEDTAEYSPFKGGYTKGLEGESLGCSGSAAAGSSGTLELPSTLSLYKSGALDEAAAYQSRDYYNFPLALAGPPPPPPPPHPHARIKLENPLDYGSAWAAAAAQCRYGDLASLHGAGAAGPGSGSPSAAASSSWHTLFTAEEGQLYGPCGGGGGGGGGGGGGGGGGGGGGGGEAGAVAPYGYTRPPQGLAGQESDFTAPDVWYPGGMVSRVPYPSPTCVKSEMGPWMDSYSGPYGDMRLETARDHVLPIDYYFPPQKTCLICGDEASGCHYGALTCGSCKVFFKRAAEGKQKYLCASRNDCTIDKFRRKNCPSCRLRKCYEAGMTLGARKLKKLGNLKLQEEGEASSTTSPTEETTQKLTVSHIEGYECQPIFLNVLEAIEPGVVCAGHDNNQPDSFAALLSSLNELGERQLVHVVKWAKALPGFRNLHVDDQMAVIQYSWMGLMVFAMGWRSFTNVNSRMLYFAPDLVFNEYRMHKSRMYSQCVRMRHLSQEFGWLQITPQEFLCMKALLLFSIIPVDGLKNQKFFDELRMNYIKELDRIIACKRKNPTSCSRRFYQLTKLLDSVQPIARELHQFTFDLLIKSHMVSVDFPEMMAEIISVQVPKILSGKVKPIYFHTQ
# [7] = target: Mu-type opioid receptor (Homo sapiens, UniProt P35372)
# [8] = target: Vascular endothelial growth factor receptor 2 (Homo sapiens, UniProt P35968); assay type: functional
# [9] = target: T3, Muscarinic acetylcholine receptor M1 (Homo sapiens, UniProt P11229); assay type: functional, cell-based
# T3 sequence (P11229 whole entry): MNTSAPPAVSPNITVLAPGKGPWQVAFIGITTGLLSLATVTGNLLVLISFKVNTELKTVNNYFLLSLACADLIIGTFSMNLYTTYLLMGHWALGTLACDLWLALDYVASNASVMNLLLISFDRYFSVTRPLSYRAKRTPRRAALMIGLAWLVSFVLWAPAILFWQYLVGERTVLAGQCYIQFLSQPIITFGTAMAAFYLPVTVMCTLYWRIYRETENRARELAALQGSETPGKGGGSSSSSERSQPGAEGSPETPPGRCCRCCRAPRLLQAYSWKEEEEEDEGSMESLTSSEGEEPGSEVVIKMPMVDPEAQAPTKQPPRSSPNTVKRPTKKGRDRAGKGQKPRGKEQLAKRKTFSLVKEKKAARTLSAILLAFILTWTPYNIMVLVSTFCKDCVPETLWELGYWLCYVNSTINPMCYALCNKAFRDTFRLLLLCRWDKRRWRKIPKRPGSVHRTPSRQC
# [10] = target: D(1A) dopamine receptor (Homo sapiens, UniProt P21728)
# [11] = target: T3, Muscarinic acetylcholine receptor M1; assay type: functional, cell-based; remark: listed apart in the source
# [12] = target: Gamma-aminobutyric acid receptor subunit alpha-1 (Rattus norvegicus, UniProt P62813)
# Further: assay procedure not described here.
# Sodium-dependent noradrenaline transporter, sequence (P23975 whole entry): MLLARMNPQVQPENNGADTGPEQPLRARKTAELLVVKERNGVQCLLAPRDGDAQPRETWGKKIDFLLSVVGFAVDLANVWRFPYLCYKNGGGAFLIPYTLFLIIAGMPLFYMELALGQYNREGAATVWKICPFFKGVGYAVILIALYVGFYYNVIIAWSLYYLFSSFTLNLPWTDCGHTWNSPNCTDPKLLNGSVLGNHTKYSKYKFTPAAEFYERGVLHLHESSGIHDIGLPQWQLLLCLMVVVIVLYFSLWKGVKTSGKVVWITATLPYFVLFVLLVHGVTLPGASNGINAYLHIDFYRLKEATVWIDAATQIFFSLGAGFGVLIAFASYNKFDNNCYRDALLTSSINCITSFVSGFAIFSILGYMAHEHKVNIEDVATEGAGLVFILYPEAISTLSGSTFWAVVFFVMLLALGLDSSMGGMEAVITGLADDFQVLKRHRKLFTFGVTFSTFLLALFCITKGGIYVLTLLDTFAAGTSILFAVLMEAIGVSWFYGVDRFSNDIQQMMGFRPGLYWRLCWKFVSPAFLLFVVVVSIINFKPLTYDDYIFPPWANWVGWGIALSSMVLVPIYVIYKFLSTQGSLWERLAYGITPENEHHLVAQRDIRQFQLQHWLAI
# Vascular endothelial growth factor receptor 2, sequence (P35968 whole entry): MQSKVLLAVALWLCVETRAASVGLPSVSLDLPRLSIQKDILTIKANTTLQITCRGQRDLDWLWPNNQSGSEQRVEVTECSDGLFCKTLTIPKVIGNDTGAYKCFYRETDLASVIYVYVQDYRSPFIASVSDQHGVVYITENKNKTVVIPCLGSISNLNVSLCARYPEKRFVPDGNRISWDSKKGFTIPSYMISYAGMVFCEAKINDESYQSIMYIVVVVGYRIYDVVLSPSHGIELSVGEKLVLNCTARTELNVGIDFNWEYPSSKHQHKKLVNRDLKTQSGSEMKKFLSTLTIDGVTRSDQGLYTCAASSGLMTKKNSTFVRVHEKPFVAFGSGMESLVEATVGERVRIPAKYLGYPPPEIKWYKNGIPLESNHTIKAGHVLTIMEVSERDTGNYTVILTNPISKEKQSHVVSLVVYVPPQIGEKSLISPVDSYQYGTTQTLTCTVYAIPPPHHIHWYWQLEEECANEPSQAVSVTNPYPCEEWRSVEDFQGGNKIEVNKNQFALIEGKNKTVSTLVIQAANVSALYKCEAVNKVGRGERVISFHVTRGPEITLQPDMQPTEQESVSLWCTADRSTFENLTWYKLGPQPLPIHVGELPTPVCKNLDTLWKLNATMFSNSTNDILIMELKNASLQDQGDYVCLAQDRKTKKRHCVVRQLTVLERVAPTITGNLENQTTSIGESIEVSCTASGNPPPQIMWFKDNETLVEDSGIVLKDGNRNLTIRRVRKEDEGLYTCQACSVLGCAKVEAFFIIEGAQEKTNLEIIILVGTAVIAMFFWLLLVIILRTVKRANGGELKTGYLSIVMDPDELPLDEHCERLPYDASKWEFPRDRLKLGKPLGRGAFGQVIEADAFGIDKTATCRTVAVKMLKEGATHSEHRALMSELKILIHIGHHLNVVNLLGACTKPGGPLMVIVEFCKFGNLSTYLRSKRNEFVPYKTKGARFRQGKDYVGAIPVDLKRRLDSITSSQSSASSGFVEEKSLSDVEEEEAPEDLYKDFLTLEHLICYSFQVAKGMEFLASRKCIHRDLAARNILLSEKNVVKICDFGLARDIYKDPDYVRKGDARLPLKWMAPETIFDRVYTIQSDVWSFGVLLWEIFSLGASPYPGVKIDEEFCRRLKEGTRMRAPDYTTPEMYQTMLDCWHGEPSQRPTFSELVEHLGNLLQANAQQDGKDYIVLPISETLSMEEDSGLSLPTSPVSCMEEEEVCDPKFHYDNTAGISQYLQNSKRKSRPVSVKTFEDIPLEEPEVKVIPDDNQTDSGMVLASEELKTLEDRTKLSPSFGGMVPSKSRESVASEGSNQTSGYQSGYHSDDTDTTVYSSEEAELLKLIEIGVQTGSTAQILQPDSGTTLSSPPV
# Prostaglandin G/H synthase 1, sequence (P23219 whole entry): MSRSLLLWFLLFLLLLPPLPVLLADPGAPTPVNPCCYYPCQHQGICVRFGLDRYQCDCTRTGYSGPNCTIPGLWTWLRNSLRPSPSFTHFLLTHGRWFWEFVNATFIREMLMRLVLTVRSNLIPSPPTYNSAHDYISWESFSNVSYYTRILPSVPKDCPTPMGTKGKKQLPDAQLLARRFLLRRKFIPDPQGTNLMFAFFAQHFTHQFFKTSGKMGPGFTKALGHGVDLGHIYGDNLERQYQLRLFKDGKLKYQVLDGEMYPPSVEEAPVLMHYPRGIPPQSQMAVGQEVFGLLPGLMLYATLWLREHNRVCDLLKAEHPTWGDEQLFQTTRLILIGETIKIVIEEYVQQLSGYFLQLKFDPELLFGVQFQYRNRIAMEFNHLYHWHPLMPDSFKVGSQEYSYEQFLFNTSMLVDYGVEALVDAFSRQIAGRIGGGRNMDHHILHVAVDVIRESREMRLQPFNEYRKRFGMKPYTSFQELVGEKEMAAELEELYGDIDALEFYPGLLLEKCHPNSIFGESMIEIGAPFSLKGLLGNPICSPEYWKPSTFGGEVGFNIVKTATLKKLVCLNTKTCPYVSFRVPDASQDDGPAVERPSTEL
# Mu-type opioid receptor, sequence (P35372 whole entry): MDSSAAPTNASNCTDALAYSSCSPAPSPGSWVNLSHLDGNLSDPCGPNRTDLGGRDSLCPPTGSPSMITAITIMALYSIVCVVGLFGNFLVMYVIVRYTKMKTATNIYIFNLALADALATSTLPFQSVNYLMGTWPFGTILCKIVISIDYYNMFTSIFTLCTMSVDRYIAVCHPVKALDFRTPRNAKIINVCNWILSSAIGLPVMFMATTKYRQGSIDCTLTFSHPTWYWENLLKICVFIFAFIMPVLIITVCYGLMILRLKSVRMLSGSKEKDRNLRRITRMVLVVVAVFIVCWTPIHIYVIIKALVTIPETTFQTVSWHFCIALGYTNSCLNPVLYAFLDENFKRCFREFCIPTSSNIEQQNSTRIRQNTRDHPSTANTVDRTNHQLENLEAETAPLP
# D(1A) dopamine receptor, sequence (P21728 whole entry): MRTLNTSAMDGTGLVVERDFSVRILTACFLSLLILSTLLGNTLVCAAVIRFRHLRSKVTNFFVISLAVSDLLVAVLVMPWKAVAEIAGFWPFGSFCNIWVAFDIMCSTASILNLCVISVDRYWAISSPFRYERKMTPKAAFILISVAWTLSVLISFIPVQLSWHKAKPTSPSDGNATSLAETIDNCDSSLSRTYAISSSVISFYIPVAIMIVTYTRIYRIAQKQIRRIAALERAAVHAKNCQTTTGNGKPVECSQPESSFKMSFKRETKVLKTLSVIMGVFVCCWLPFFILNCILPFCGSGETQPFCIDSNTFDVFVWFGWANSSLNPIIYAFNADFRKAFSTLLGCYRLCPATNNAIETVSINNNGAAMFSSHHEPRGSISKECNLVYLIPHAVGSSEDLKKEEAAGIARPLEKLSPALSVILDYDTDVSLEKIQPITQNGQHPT
# Sodium-dependent serotonin transporter, sequence (P31645 whole entry): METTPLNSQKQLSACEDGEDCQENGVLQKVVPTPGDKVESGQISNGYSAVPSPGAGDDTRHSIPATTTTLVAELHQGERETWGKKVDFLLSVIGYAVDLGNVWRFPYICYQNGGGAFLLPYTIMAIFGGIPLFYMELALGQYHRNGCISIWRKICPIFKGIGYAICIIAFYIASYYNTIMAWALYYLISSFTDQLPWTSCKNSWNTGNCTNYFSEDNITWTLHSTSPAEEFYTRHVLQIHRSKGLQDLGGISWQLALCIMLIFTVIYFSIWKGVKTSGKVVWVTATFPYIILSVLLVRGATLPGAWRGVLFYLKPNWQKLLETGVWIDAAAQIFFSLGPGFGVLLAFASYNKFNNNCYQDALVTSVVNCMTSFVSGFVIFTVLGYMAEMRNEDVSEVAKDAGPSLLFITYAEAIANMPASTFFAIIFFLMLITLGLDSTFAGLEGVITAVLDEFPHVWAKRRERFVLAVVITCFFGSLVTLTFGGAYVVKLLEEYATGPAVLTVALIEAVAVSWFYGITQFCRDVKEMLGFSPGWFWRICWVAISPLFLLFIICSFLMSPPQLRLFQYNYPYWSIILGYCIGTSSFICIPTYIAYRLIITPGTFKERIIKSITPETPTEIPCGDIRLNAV
# Gamma-aminobutyric acid receptor subunit alpha-1, sequence (P62813 whole entry): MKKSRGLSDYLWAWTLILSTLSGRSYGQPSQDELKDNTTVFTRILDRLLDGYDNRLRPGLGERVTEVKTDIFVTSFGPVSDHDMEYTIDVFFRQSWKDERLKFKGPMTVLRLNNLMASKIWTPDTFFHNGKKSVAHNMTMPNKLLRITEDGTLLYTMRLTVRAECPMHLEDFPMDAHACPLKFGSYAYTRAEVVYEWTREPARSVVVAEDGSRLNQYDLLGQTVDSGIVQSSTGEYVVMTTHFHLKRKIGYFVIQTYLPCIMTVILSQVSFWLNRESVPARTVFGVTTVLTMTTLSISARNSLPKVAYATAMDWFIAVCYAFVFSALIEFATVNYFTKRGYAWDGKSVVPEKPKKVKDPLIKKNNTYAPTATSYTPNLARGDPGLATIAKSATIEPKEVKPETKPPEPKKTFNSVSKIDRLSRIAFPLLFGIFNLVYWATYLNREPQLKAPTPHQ
SMILES,AC50 [1] [µM],AC50 [2] [µM],AC50 [3] [µM],AC50 [4] [µM],AC50 [5] [µM],AC50 [6] [µM],AC50 [7] [µM],AC50 [8] [µM],AC50 [9] [µM],AC50 [10] [µM],AC50 [11] [µM],AC50 [12] [µM]
CC(NCCC(c1ccccc1)c1ccccc1)c1ccccc1 (centres undefined) [FENDILINE],7.94,> 30,3.26,> 30,> 10,> 30,0.721,> 30,26.7,21.7,,
COCC(=O)O[C@]1(CCN(C)CCCc2nc3ccccc3[nH]2)CCc2cc(F)ccc2[C@@H]1C(C)C [MIBEFRADIL],22.8,> 30,20.2,> 30,> 10,> 30,0.979,> 30,17.7,10.1,> 3,> 30
COC(=O)N[C@H](C(=O)N1CC2(CC2)C[C@H]1c1ncc(-c2ccc3c(c2)C(F)(F)c2cc(-c4ccc5nc([C@@H]6[C@H]7CC[C@H](C7)N6C(=O)[C@@H](NC(=O)OC)C(C)C)[nH]c5c4)ccc2-3)[nH]1)C(C)C,> 30,> 30,> 30,> 30,> 30,> 10,> 30,> 30,> 30,> 30,> 30,
Cc1ccc2c([nH]c(=O)c3c(=O)cc(C(=O)OCCC(C)C)oc32)c1C,> 30,> 30,> 30,> 30,> 10,> 30,> 30,> 30,> 30,> 30,> 30,
